Patent US11760751B2, “Benzo 2-azaspiro[4.4]nonane compound and use thereof” (HELIOEAST PHARMACEUTICAL CO., LTD., priority 2020, dated 2023)
Counter-ions that a name gives are not always drawn.

How the values were obtained:
S1PR1 = target: T1, S1PR1 (Homo sapiens, UniProt P21453); assay: In vitro S1PR1 agonistic activity, PathHunter cell line, chemiluminescent detection; type: cell-based; conditions: for EC50: 90-180 min at 37° C.; for Emax: % activity vs maximum control ligand
T1 construct: expressed in transfected cells
T1 sequence (P21453 whole entry): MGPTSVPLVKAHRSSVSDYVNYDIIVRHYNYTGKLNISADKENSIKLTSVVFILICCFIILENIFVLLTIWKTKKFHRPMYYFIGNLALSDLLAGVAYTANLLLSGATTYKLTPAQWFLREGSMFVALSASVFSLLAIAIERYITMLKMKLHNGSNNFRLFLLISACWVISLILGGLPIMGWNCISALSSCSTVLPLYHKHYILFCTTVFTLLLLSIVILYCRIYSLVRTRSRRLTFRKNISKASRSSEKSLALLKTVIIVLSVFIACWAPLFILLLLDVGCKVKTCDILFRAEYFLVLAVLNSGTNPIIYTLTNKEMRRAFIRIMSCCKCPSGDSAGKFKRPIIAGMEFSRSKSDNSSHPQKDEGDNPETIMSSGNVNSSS
Experimental: Test Embodiment 1: In Vitro Evaluation of the Agonistic Activity of the Compounds of the Present Disclosure on S1PR1
Experimental objective: to detect the agonistic activity of compounds on S1PR1
I. Cell Treatment • 1. A PathHunter cell line was thawed according to standard procedures; • 2. the cells were inoculated in a 20 μL 384-well microplate and incubated at 37° C. for appropriate time.
II. Agonist • 1. For agonist determination, cells were incubated with samples to be tested to induce a reaction; • 2. a storage solution to be tested was 5-fold diluted into a buffer; • 3. 5 μL of the 5-fold dilution was added to the cells and incubated at 37° C. for 90-180 minutes. The vehicle concentration was 1%.
III. Signal Detection • 1. 12.5 μL or 15 μL of PathHunter detection reagent at a volume ratio of 50% was added at a time, and then incubated at room temperature for 1 hour to generate a detection signal; • 2. the microplate was read with a PerkinElmer Envision™ instrument for chemiluminescent signal detection.
IV. Data Analysis • 1. Activity analysis of the compound was carried out by using CBIS data analysis kit (ChemInnovation, CAA); • 2. calculation formula: % activity=100%×(average test sample RLU−average vehicle RLU)/(average maximum control ligand−average vehicle RLU)

[1] = Pharmacokinetic evaluation in SD rats (intravenous and oral); type: in vivo; conditions: male, Sprague-Dawley, plasma, SD rat; for Cmax / bioavailability: intravenous 1.0 mg/kg; for Cmax: oral 2.0 mg/kg (route of Cmax not stated), read-out: Peak concentration Cmax; for bioavailability: oral 2.0 mg/kg, read-out: Bioavailability F; for clearance / Vd: intravenous injection 1.0 mg/kg (oral 2.0 mg/kg); for clearance: read-out: Clearance rate CL; for Vd: read-out: Tissue distribution Vdss; for AUC(0-t) / half-life: oral administration 2.0 mg/kg; for AUC(0-t): read-out: Area under the drug-time curve AUC0-last PO; for half-life: read-out: Half-life T1/2 (PO) (converted)
Experimental: Test Embodiment 3: Pharmacokinetic Evaluation of Compound in Rats
Experimental objective: to test the pharmacokinetics of the compound in SD rats
Sprague Dawley rat (male, 200-300 g, 7-9 weeks old, Shanghai SLAC)
(§1) A standard protocol was used to test the pharmacokinetic characteristics of rodents after intravenous injection and oral administration of the compound. In the experiment, the candidate compound was prepared into a clear solution, and administrated to rats by single intravenous injection and oral administration. The vehicle for intravenous injection was a 5:95 DMSO and 10% hydroxypropyl cyclodextrin aqueous solution, and the vehicle for oral administration was a 0.5% w/v methylcellulose and 0.2% w/v tween 80 aqueous solution. Whole blood samples within 24 hours were collected, centrifuged at 3000 g for 15 minutes, and the supernatant was separated to obtain plasma samples. 4-fold volume of acetonitrile solution containing internal standard was added thereto to precipitate protein. The mixture was centrifuged, and the supernatant was taken, and an equal volume of water was added thereto. Then the mixture was centrifuged and the supernatant was taken for injection. The blood drug concentration was quantitatively analyzed by LC-MS/MS analysis method, and pharmacokinetic parameters, such as peak concentration, clearance rate, half-life, area under the drug-time curve and bioavailability, were calculated.

[2] = Pharmacokinetic evaluation in CD-1 mice (intravenous and oral); type: in vivo; conditions: male, mouse, plasma
Experimental: Test Embodiment 4: Pharmacokinetic Evaluation of Compound in Mice
Experimental objective: to test the pharmacokinetics of the compound in CD-1 mice
CD-1 mice (male, 20-40 g, 6-10 weeks old, Shanghai BK)
as §1, with “The standard” for “A standard”, “clear solution or a suspension,” for “clear solution,”, “to two mice” for “to rats”, “hydroxypropyl β-cyclodextrin” for “hydroxypropyl cyclodextrin”, “at 3200” for “at 3000”, “for 10” for “for 15”

Row | Compound | EC50 (S1PR1) | Emax (S1PR1) | also measured
1 | CC(C)Oc1ccc(-c2nsc(-c3cccc4c3CCC43CCN(C(=O)CO)C3)n2)cc1C#N (stereo not drawn) [Compound 16] | 14.4 nM | 77.8% | –
2 | CC(C)Oc1ccc(-c2nc(-c3cccc4c3CCC43CCN(C(=O)CO)C3)no2)cc1Cl (stereo not drawn) [Compound 11] | 1.78 nM | 84.6% | –
3 | CC(C)Oc1ccc(-c2ncc(-c3cccc4c3CCC43CCN(CC4(C(=O)O)CC4)C3)s2)cc1C#N (stereo not drawn) [Hydrochloride of compound 26] | 4.47 nM | 73.8% | –
4 | CC(C)Oc1ccc(-c2ncc(-c3cccc4c3CCC43CCN(C(=O)CO)C3)s2)cc1C#N (stereo not drawn) [Compound 14] | 1.59 nM | 82.2% | –
5 | CC(C)Oc1ccc(-c2nnc(-c3cccc4c3CCC43CCN(CC4(C(=O)O)CC4)C3)s2)cc1C#N (stereo not drawn) [Hydrochloride of compound 28] | 1.32 nM | 77.7% | –
6 | CC(C)Oc1ccc(-c2nc(-c3cccc4c3CCC43CCN(C(=O)[C@H](O)CO)C3)no2)cc1C#N (stereo partly drawn) [Hydrochloride of compound 44] | 0.72 nM | 104% | –
7 | CC(C)Oc1ccc(-c2nnc(-c3cccc4c3CCC43CCN(C(=O)CO)C3)s2)cc1C#N (stereo not drawn) [Compound 15] | 2.2 nM | 98.9% | –
8 | CC(C)Nc1ncc(-c2nc(-c3cccc4c3CCC43CCN(C(=O)CO)C3)no2)cc1C#N (stereo not drawn) [Compound 13] | 10.7 nM | 77.8% | –
9 | CC(C)Oc1ccc(-c2ncc(-c3cccc4c3CCC43CCN(CC4(C(=O)O)CC4)C3)cn2)cc1C#N (stereo not drawn) [Hydrochloride of compound 25] | 11.5 nM | 82.1% | –
10 | CC(C)Oc1ccc(-c2ncc(-c3cccc4c3CCC43CCN(C(=O)CO)C3)cn2)cc1C#N (stereo not drawn) [Compound 18] | 4.06 nM | 84.2% | –
11 | N#Cc1cc(-c2nc(-c3cccc4c3CCC43CCN(C(=O)CO)C3)no2)ccc1OC1CCCC1 (stereo not drawn) [Compound 9] | 2.15 nM | 75.8% | –
12 | CC(C)Oc1ccc(-c2nc(-c3cccc4c3CCC43CCN(C(=O)CN)C3)no2)cc1C#N (stereo not drawn) [Hydrochloride of compound 6] | 0.865 nM | 115% | –
13 | CC(C)Oc1ccc(-c2nc(-c3cccc4c3CCC43CCN(CC4(C(=O)O)CC4)C3)ns2)cc1C#N (stereo not drawn) [Hydrochloride of compound 24] | 4.99 nM | 87.1% | –
14 | CC(C)Oc1ccc(-c2nc(-c3cccc4c3CCC43CCN(C(=O)CO)C3)ns2)cc1C#N (stereo not drawn) [Compound 20] | 9.39 nM | 90.4% | –
15 | COc1cc(-c2nc(-c3cccc4c3CCC43CCN(CC4(C(=O)O)CC4)C3)no2)cc(C2CCCC2)n1 (stereo not drawn) [Compound 40] | 2.82 nM | 102% | Cmax [1]: 357 ng/mL; bioavailability [1]: 63.9%; clearance [1]: 5.47 mL/min/kg; Vd [1]: 5.99 L/kg; AUC(0-t) [1]: 7.14 µM·h; half-life [1]: 8.83 h
16 | CC(C)Cc1ccc(-c2nc(-c3cccc4c3CCC43CCN(CC4(C(=O)O)CC4)C3)no2)cc1 (stereo not drawn) [Hydrochloride of compound 46] | 5.76 nM | 105% | –
17 | CC(C)Oc1ccc(-c2ncc(-c3cccc4c3CCC43CCN(C(=O)CO)C3)o2)cc1C#N (stereo not drawn) [Compound 21] | 21.7 nM | 70.8% | –
18 | CC(C)Oc1ccc(-c2ncc(-c3cccc4c3CCC43CCN(CC4(C(=O)O)CC4)C3)o2)cc1C#N (stereo not drawn) [Hydrochloride of compound 27] | 9.78 nM | 63.4% | –
19 | CC(C)Oc1ncc(-c2nc(-c3cccc4c3CCC43CCN(CC4(C(=O)O)CC4)C3)no2)cc1Cl (stereo not drawn) [Hydrochloride of compound 39] | 3.46 nM | 144% | –
20 | CC(C)Oc1ccc(-c2nc(-c3cccc4c3CCC43CCN(C(=O)CO)C3)no2)cc1Br (stereo not drawn) [Compound 10] | 1.31 nM | 101% | –
21 | CC(C)Oc1ccc(-c2cnc(-c3cccc4c3CCC43CCN(C(=O)CO)C3)cn2)cc1C#N (stereo not drawn) [Compound 19] | 3.25 nM | 77.8% | –
22 | N#Cc1cc(-c2nc(-c3cccc4c3CCC43CCN(C(=O)CO)C3)no2)ccc1OC(F)F (stereo not drawn) [Compound 17] | 8.59 nM | 80.8% | –

These reach a lower EC50 (S1PR1). Values come first.

Row | EC50 (S1PR1) | Emax (S1PR1) | Compound | also measured
23 | 0.477 nM | 87.6% | CC(C)Oc1ccc(-c2nc(-c3cccc4c3CCC43CCN(C(=O)CO)C3)no2)cc1C(F)F (stereo not drawn) [Compound 12] | –
24 | 0.29 nM | 126% | CC(C)Oc1ccc(-c2nc(-c3cccc4c3CCC43CCN(C(=O)[C@@H](O)CO)C3)no2)cc1C#N (stereo partly drawn) [Compound 45] | Cmax [1]: 1180 ng/mL; bioavailability [1]: 59.2%; clearance [1]: 1.59 mL/min/kg; Vd [1]: 1.94 L/kg; AUC(0-t) [1]: 22.9 µM·h; half-life [1]: 13.2 h
25 | 0.188 nM | 96.8% | CC(C)Oc1ncc(-c2nc(-c3cccc4c3CCC43CCN(C(=O)CO)C3)no2)cc1C#N (stereo not drawn) [Compound 8] | Cmax ([2]; intravenous 0.5 mg/kg, oral 2.0 mg/kg (route of Cmax not stated), read-out: Peak concentration Cmax): 2280 ng/mL; bioavailability ([2]; intravenous 0.5 mg/kg, oral 2.0 mg/kg, read-out: Bioavailability F): 80.3%; clearance ([2]; intravenous injection 0.5 mg/kg (oral 2.0 mg/kg), read-out: Clearance rate CL): 3.58 mL/min/kg; Vd ([2]; intravenous injection 0.5 mg/kg (oral 2.0 mg/kg), read-out: Tissue distribution Vdss): 0.816 L/kg; AUC(0-t) ([2]; oral administration 2.0 mg/kg, read-out: Area under the drug-time curve AUC0-last PO): 16.3 µM·h; half-life ([2]; oral administration 2.0 mg/kg, read-out: Half-life T1/2 (PO) (converted)): 2.9 h
26 | 0.129 nM | 88.6% | COCC(=O)N1CCC2(CCc3c(-c4noc(-c5ccc(OC(C)C)c(C#N)c5)n4)cccc32)C1 (stereo not drawn) [Compound 3] | –
27 | 0.123 nM | 90.7% | CC(C)Oc1ccc(-c2nc(-c3cccc4c3CCC43CCN(C(=O)CS(C)(=O)=O)C3)no2)cc1C#N (stereo not drawn) [Compound 7] | –
28 | 0.107 nM | 99.4% | CC(C)Oc1ccc(-c2nc(-c3cccc4c3CCC43CCN(C(=O)CC#N)C3)no2)cc1C#N (stereo not drawn) [Compound 4] | –
29 | 0.1 nM | 108% | CC(C)Oc1ccc(-c2nc(-c3cccc4c3CCC43CCN(CC4(C(=O)O)CC4)C3)no2)cc1C(F)(F)F (stereo not drawn) [Hydrochloride of compound 43] | –
30 | 0.0688 nM | 85.1% | CC(C)Oc1ccc(-c2nc(-c3cccc4c3CCC43CCN(C(=O)CCC(=O)O)C3)no2)cc1C#N (stereo not drawn) [Compound 5] | –
31 | 0.047 nM | 94.1% | O=C(O)C1(CN2CCC3(CCc4c(-c5noc(-c6ccc(C7CCCCC7)c(C(F)(F)F)c6)n5)cccc43)C2)CC1 (stereo not drawn) [Hydrochloride of compound 37] | –
32 | 0.041 nM | 100% | O=C(O)C1(CN2CCC3(CCc4c(-c5noc(-c6ccc(C7CCCC7)c(C(F)(F)F)c6)n5)cccc43)C2)CC1 (stereo not drawn) [Hydrochloride of compound 38] | –
33 | 0.0353 nM | 68.3% | CC(C)Oc1ccc(-c2nc(-c3cccc4c3CCC43CCN(CC4(C(=O)O)CCC4)C3)no2)cc1C#N (stereo not drawn) [Hydrochloride of compound 23] | –
